Assay results: patent US10850274B2, “Microfluidic assisted perfusion devices” (The Regents of the University of California, priority 2015, dated 2020)

What was measured:
MCF7 spheroids = assay: Change in MCF7 spheroid size after Doxorubicin treatment in tumor-on-a-chip device; format: cell-based; conditions: for decrease in spheroid area: 3 days (D8 area normalized to D5)
Description: HUVECs and MCF7 spheroids were encapsulated within GelMA hydrogels. The MCF spheroids were passed through a cell strainer having 100 μm pore size (Corning) to eliminate single cells and small spheroids. Around 50 spheroids with a diameter of ˜200 μm were dispersed in 5 mL of PBS containing 2 million HUVEC cells. The mixture was centrifuged for 3 minutes at 800 rpm. The supernatant was aspirated and 100 μL of 10% GelMA solution was added to the cell pellet. The cells were re-suspended gently using a pipette before the addition of 0.01% ascorbic acid (antioxidant) and 2 μM LAP (photoinitiator) to the solution. This solution was again mixed gently, drawn into a syringe, and injected into the microfluidic device (FIG. 8, step G).
This device was placed onto a transparency film photomask containing an ellipse pattern and mounted onto a microscope stage (FIG. 8, steps H-I). Using the stage controller of the microscope, the position of the fluidic device was moved to locate individual MCF7 spheroids surrounded by HUVECs under bright field illumination. Each location was exposed to UV light with an excitation and emission wavelengths of approximately 358 and 463 nm, respectively, for 18 seconds. Several locations were photopolymerized before flushing the device with PBS containing 4% Penicillin/Streptomycin. Mixed Media (MM) containing 50% GM and 50% HM was subsequently injected into the device and the GelMA structures containing MCF7 spheroids and HUVECs were cultured at 37° C. and 10% CO2.
Brightfield images of the GelMA hydrogels containing the spheroids and HUVECs were recorded as a function of culture time (1-5 days) to examine their growth post-encapsulation. The area of the spheroid was quantified by tracing the boundary of the spheroid using the free-hand selection tool on ImageJ. […]
The potential of the device as a drug screening platform was assessed by analyzing the effects of Doxorubicin on HUVEC barrier and the tumor spheroids. […] To quantify the effects of Doxorubicin, the changes in spheroid size was analyzed before and after treatment with varying concentrations of the drug.

HUVECs = assay: Effect of Doxorubicin on HUVEC endothelial barrier around GelMA structures
Description: HUVECs and MCF7 spheroids were encapsulated within GelMA hydrogels.
Doxorubicin (Cat. No. D1515, Sigma-Aldrich) was weighed and dissolved in DMSO to achieve a concentration of 100 mg/mL. This solution was distributed into small aliquots and stored in −20° C. The stock solution was thawed and diluted to 100 μg/mL in pre-warmed MM (˜37° C.) and sterilized using a DMSO-resistant syringe filter (Pall Corporations). This 100 μg/mL solution was further diluted in MM to acquire doxorubicin concentrations of 1 and 10 μg/mL used herein.
The potential of the device as a drug screening platform was assessed by analyzing the effects of Doxorubicin on HUVEC barrier and the tumor spheroids. Cell laden GelMA structures, cultured for 5 days, were exposed to different concentrations of Doxorubicin (1, 10, and 100 μg/mL) for 3 days.

[1] = system: neonatal mouse cardiomyocytes
Description: Isolated primary neonatal cardiomyocytes were mixed with 8.5% wt/vol GelMa solution containing 0.01% wt/vol of ascorbic acid and 2 mM lithium phenyl-2,4,6-trimethylbenoylphosphinate (LAP). This solution was injected into the fluidics chamber (see FIG. 3D) and a dark transparency mask containing the clear ellipse patterns was placed under the circular chamber of the device. The GelMa solution was photo-polymerized using a UV light source with an excitation wavelength of 365±40 nm (see FIG. 3E). The regions of the hydrogel precursor solution exposed to UV light polymerized rapidly, thereby forming the microtissues with cells encapsulated within (see FIG. 3E). The unreacted hydrogel precursor solution was removed from the fluidics chamber by injecting PBS in excess (see FIG. 3F). Thus, the 3D device with patterned cardiac-microtissues between hydrogels was created (see FIG. 3G). The device was then perfused with cardiomyocyte growth media and incubated at 37° C. and 10% CO2 culture conditions. […]
To quantify the forces generated by the cardiomyocytes, the propagation of forces originating from the GelMA structures were exploited to PAm hydrogels. […] In addition, a measured value of 8.5 kPa was used for the elastic modulus of the PAm hydrogel and 0.45 for Poisson's ratio.
By treating the PAm hydrogel as a 3 dimensional block tethered at the bottom in mechanical equilibrium, a finite element (FE) approach was used to solve a series of electrostatics equations. […] To obtain the input for the boundary condition at the top surface of the gel, the displacement of the hydrogel was quantified by tracking the fluorescent particles embedded within the network using particle image velocimetry (PIV). […]
Using this approach, fluorescent images were obtained of the green beads embedded within PAm at a frequency of 9 frames per second in order to capture the contraction profile of the cardiomyocytes at 20× magnification. […] Using the FE approach, the traction stress field caused by the cellular forces was calculated.

presence of endothelial barrier (HUVECs; at and above 10 μg/mL of Doxorubicin, D8)	endothelial barrier (HUVECs; high doses of Doxorubicin (>10 μg/mL))	SMILES	spheroid growth less than those cultured in the absence of the drug (MCF7 spheroids; 1 μg/mL Doxorubicin, 3 days, growth still observed) [%]	decrease in spheroid area (MCF7 spheroids; 10 μg/mL Doxorubicin) [%]	decrease in spheroid area (MCF7 spheroids; 100 μg/mL Doxorubicin) [%]	endothelial barrier (cytotoxicity to HUVECs) (HUVECs; upon exposure to Doxorubicin, 3 days)	magnitude of contraction ([1]; addition of epinephrine (0.1 μg/mL))	ratio of residual stress in the presence of epinephrine to absence of epinephrine ([1]; multiple microtissues, cultured 7 days, value <1 = decrease, epinephrine 0.1 μg/mL)	ratio of force amplitude in the presence of epinephrine to absence of epinephrine ([1]; multiple microtissues, cultured 7 days, value >1 = increase, epinephrine 0.1 μg/mL)
lack thereof	loss of the endothelial barrier	COc1cccc2c1C(=O)c1c(O)c3c(c(O)c1C2=O)C[C@@](O)(C(=O)CO)C[C@@H]3O[C@H]1C[C@H](N)[C@H](O)[C@H](C)O1 [Doxorubicin]	~20	~7	~15	disappeared			
		CNC[C@H](O)c1ccc(O)c(O)c1 [epinephrine]					increased	~0.9	~1.4
